Source: ChEMBL document CHEMBL3885881, “DrugMatrix”

Species: Rattus norvegicus
Experiment: DrugMatrix - Regimen: Daily Repeat
Format: toxicity, organism-based, Sprague-Dawley
Design: regimen Daily Repeat, gender Male, age 6-8 weeks
Details: in vivo, po, 0 mg/kg, route oral GAVAGE, dose level Control, vehicle 100 % SALINE; for ABSOLUTE BASOPHIL / ABSOLUTE EOSINOPHIL / ABSOLUTE LYMPHOCYTE / ABSOLUTE MONOCYTE / ABSOLUTE SEGMENTED NEUTROPHIL / BASOPHIL / EOSINOPHIL / ERYTHROCYTE COUNT / HEMATOCRIT / HEMOGLOBIN / LEUKOCYTE COUNT / LYMPHOCYTE / MEAN CORPUSCULAR HEMOGLOBIN / MEAN CORPUSCULAR HEMOGLOBIN CONCENTRATION / MEAN CORPUSCULAR VOLUME / MONOCYTE / NEUTROPHIL / NUCLEATED RED BLOOD CELLS / PLATELET COUNT: tissue Blood; for ALANINE AMINOTRANSFERASE / ALBUMIN / ALKALINE PHOSPHATASE / ASPARTATE AMINOTRANSFERASE / BLOOD UREA NITROGEN / CARBON DIOXIDE / CHLORIDE / CHOLESTEROL / CREATINE PHOSPHOKINASE / CREATININE / GLUCOSE / LACTATE DEHYDROGENASE / LIPASE / PHOSPHORUS / POTASSIUM / SODIUM / TOTAL BILIRUBIN / TOTAL PROTEIN / URIC ACID: tissue Plasma

With `NC(=O)C[S+]([O-])C(c1ccccc1)c1ccccc1` (stereo unspecified) [MODAFINIL] the “ABSOLUTE BASOPHIL” value (72 h, time 3 day) was 0 CELLS/uL, the “ABSOLUTE EOSINOPHIL” value (72 h, time 3 day) was 37 CELLS/uL and the “ABSOLUTE LYMPHOCYTE” value (72 h, time 3 day) was 12359.33 CELLS/uL. The “ABSOLUTE MONOCYTE” value (72 h, time 3 day) was 122.67 CELLS/uL, the “ABSOLUTE SEGMENTED NEUTROPHIL” value (72 h, time 3 day) was 847.67 CELLS/uL and the BASOPHIL (72 h, time 3 day) was 0%. For the same compound, the EOSINOPHIL (72 h, time 3 day) was 0.33%, the “ERYTHROCYTE COUNT” value (72 h, time 3 day) was 5.75 x10E6/uL and the HEMATOCRIT (72 h, time 3 day) was 36.08%. The HEMOGLOBIN (72 h, time 3 day) was 14.07 G/DL, the “LEUKOCYTE COUNT” value (72 h, time 3 day) was 13.37 x10E3/uL and the LYMPHOCYTE (72 h, time 3 day) was 92.5%. For the same compound, the “MEAN CORPUSCULAR HEMOGLOBIN” value (72 h, time 3 day) was 24.47 pg, the “MEAN CORPUSCULAR HEMOGLOBIN CONCENTRATION” value (72 h, time 3 day) was 38.98 G/DL and the “MEAN CORPUSCULAR VOLUME” value (72 h, time 3 day) was 62.78 fL. For the same compound, the MONOCYTE (72 h, time 3 day) was 1%, the NEUTROPHIL (72 h, time 3 day) was 6.17% and the “NUCLEATED RED BLOOD CELLS” value (72 h, time 3 day) was 0.17 /100WBC. For the same compound, the “PLATELET COUNT” value (72 h, time 3 day) was 1202.17 x10E3/uL, the “ALANINE AMINOTRANSFERASE” value (72 h, time 3 day) was 50.67 u/L and the ALBUMIN (72 h, time 3 day) was 4.13 G/DL. For the same compound, the “ALKALINE PHOSPHATASE” value (72 h, time 3 day) was 356.33 u/L, the “ASPARTATE AMINOTRANSFERASE” value (72 h, time 3 day) was 78.17 u/L and the “BLOOD UREA NITROGEN” value (72 h, time 3 day) was 14.17 mg/dL. The “CARBON DIOXIDE” value (72 h, time 3 day) was 31.33 mmol/L, the CHLORIDE (72 h, time 3 day) was 98.5 MEQ/L and the CHOLESTEROL (72 h, time 3 day) was 76.5 mg/dL. The “CREATINE PHOSPHOKINASE” value (72 h, time 3 day) was 248.33 u/L, the CREATININE (72 h, time 3 day) was 0.2 mg/dL and the GLUCOSE (72 h, time 3 day) was 144 mg/dL. The “LACTATE DEHYDROGENASE” value (72 h, time 3 day) was 107 u/L, the LIPASE (72 h, time 3 day) was 9.83 u/L and the PHOSPHORUS (72 h, time 3 day) was 12.8 mg/dL. For the same compound, the POTASSIUM (72 h, time 3 day) was 6.75 MEQ/L, the SODIUM (72 h, time 3 day) was 142 MEQ/L and the “TOTAL BILIRUBIN” value (72 h, time 3 day) was 0.18 mg/dL. For the same compound, the “TOTAL PROTEIN” value (72 h, time 3 day) was 5.98 G/DL, the “URIC ACID” value (72 h, time 3 day) was 1.42 mg/dL and the “ABSOLUTE BASOPHIL” value (120 h, time 5 day) was 0 CELLS/uL. The “ABSOLUTE EOSINOPHIL” value (120 h, time 5 day) was 0 CELLS/uL, the “ABSOLUTE LYMPHOCYTE” value (120 h, time 5 day) was 8681.17 CELLS/uL and the “ABSOLUTE MONOCYTE” value (120 h, time 5 day) was 79.83 CELLS/uL. For the same compound, the “ABSOLUTE SEGMENTED NEUTROPHIL” value (120 h, time 5 day) was 689 CELLS/uL, the BASOPHIL (120 h, time 5 day) was 0% and the EOSINOPHIL (120 h, time 5 day) was 0%. For the same compound, the “ERYTHROCYTE COUNT” value (120 h, time 5 day) was 5.49 x10E6/uL, the HEMATOCRIT (120 h, time 5 day) was 33.55% and the HEMOGLOBIN (120 h, time 5 day) was 13.1 G/DL. For the same compound, the “LEUKOCYTE COUNT” value (120 h, time 5 day) was 9.45 x10E3/uL, the LYMPHOCYTE (120 h, time 5 day) was 92.33% and the “MEAN CORPUSCULAR HEMOGLOBIN” value (120 h, time 5 day) was 23.92 pg. For the same compound, the “MEAN CORPUSCULAR HEMOGLOBIN CONCENTRATION” value (120 h, time 5 day) was 39.07 G/DL, the “MEAN CORPUSCULAR VOLUME” value (120 h, time 5 day) was 61.22 fL and the MONOCYTE (120 h, time 5 day) was 0.67%. The NEUTROPHIL (120 h, time 5 day) was 7%, the “NUCLEATED RED BLOOD CELLS” value (120 h, time 5 day) was 0.17 /100WBC and the “PLATELET COUNT” value (120 h, time 5 day) was 1001.17 x10E3/uL. The “ALANINE AMINOTRANSFERASE” value (120 h, time 5 day) was 49.33 u/L, the ALBUMIN (120 h, time 5 day) was 4.07 G/DL and the “ALKALINE PHOSPHATASE” value (120 h, time 5 day) was 300.33 u/L. The “ASPARTATE AMINOTRANSFERASE” value (120 h, time 5 day) was 83.5 u/L, the “BLOOD UREA NITROGEN” value (120 h, time 5 day) was 16 mg/dL and the “CARBON DIOXIDE” value (120 h, time 5 day) was 29.67 mmol/L. The CHLORIDE (120 h, time 5 day) was 100.5 MEQ/L, the CHOLESTEROL (120 h, time 5 day) was 74.33 mg/dL and the “CREATINE PHOSPHOKINASE” value (120 h, time 5 day) was 489.67 u/L. The CREATININE (120 h, time 5 day) was 0.35 mg/dL, the GLUCOSE (120 h, time 5 day) was 151 mg/dL and the “LACTATE DEHYDROGENASE” value (120 h, time 5 day) was 133.67 u/L. For the same compound, the LIPASE (120 h, time 5 day) was 11.17 u/L, the PHOSPHORUS (120 h, time 5 day) was 10.88 mg/dL and the POTASSIUM (120 h, time 5 day) was 5.5 MEQ/L. For the same compound, the SODIUM (120 h, time 5 day) was 145.7 MEQ/L, the “TOTAL BILIRUBIN” value (120 h, time 5 day) was 0.2 mg/dL and the “TOTAL PROTEIN” value (120 h, time 5 day) was 6.05 G/DL. The “URIC ACID” value (120 h, time 5 day) was 0.68 mg/dL.
